{
  "source": "patent US8211887B2",
  "about": "“Topical preparation and method for transdermal delivery and localization of therapeutic agents” (priority 2005, dated 2012)",
  "origin": "cited, not measured here",
  "key": {"[1]": {"conditions": "local anesthetic, for levobupivacaine: locally"}},
  "note": "Read-outs that look alike come from different tables or passages of the source.",
  "data": [
    {"molecule": "CCN(CC)CCOC(=O)c1ccc(N)cc1Cl", "note": "[chloroprocaine]", "values": [
      {"measurement": "duration of action", "setting": "local anesthetic", "value": "0.5 to 1", "unit": "h"},
      {"measurement": "onset of action", "setting": "local anesthetic", "value": "6 to 12", "unit": "min"},
      {"measurement": "peak", "setting": "local anesthetic", "value": "10 to 20", "unit": "min"}
    ]},
    {"molecule": "CCN(CC)CCOC(=O)c1ccc(N)cc1", "note": "[procaine]", "values": [
      {"measurement": "onset of action", "setting": "local anesthetic", "value": "5 to 10", "unit": "min"},
      {"measurement": "peak", "setting": "local anesthetic", "value": "less than 30 minutes"},
      {"measurement": "duration of action", "setting": "[1]", "value": "less than 2 hours"}
    ]},
    {"molecule": "CCCN1CCCC[C@H]1C(=O)Nc1c(C)cccc1C", "note": "[ropivacaine]", "values": [
      {"measurement": "onset of action", "setting": "local anesthetic", "value": "1 to 15", "unit": "min"},
      {"measurement": "peak", "setting": "local anesthetic", "value": "20 to 45", "unit": "min"},
      {"measurement": "duration of action", "setting": "[1]", "value": "2 to 6", "unit": "h"}
    ]},
    {"molecule": "Cc1cccc(C)c1NC(=O)C1CCCCN1C", "note": "(stereo not drawn) [mepivacaine]", "values": [
      {"measurement": "duration of action", "setting": "local anesthetic", "value": "0.75 to 1.5", "unit": "h"},
      {"measurement": "onset of action", "setting": "local anesthetic", "value": "3 to 5", "unit": "min"},
      {"measurement": "peak", "setting": "local anesthetic", "value": "15 to 45", "unit": "min"}
    ]},
    {"molecule": "CCCCN1CCCC[C@H]1C(=O)Nc1c(C)cccc1C", "note": "[levobupivacaine]", "values": [
      {"measurement": "duration of action", "setting": "if used for epidural or peripheral nerve blocks or obstetrical anesthesia", "value": "3 to 9", "unit": "h"},
      {"measurement": "onset of action", "setting": "local anesthetic", "value": "2 to 10", "unit": "min"},
      {"measurement": "duration of action", "setting": "[1]", "value": "2 to 4", "unit": "h"}
    ]}
  ]
}
